Measurements published in US8410153B2, “Naphthalene isoxazoline invertebrate pest control agents” (E.I. du Pont de Nemours and Company, priority 2007, dated 2013).

Key:
Assay type in all cases: in vivo
[1] = system: diamondback moth (Plutella xylostella); experiment: Test A: control of diamondback moth on radish plant, foliar spray; conditions: sprayed at 50 ppm, held 6 days
Text: For evaluating control of diamondback moth (Plutella xylostella) the test unit consisted of a small open container with a 12-14-day-old radish plant inside. This was pre-infested with about 50 neonate larvae that were dispensed into the test unit via corncob grits using a bazooka inoculator. The larvae moved onto the test plant after being dispensed into the test unit.
(§1) Test compounds were formulated using a solution containing 10% acetone, 90% water and 300 ppm X-77™ Spreader Lo-Foam Formula non-ionic surfactant containing alkylarylpolyoxyethylene, free fatty acids, glycols and isopropanol (Loveland Industries, Inc. Greeley, Colo., USA). The formulated compounds were applied in 1 mL of liquid through a SUJ2 atomizer nozzle with ⅛ JJ custom body (Spraying Systems Co. Wheaton, Ill., USA) positioned 1.27 cm (0.5 inches) above the top of each test unit. All experimental compounds in these tests were sprayed at 50 ppm, and the test was replicated three times. After spraying of the formulated test compound, each test unit was allowed to dry for 1 h and then a black, screened cap was placed on top. The test units were held for 6 days in a growth chamber at 25° C. and 70% relative humidity. Plant feeding damage was then visually assessed based on foliage consumed, and a pest mortality rating was also counted and calculated for each test unit.

[2] = system: fall armyworm (Spodoptera frugiperda); experiment: Test B: control of fall armyworm on corn (maize) plant, foliar spray; conditions: sprayed at 50 ppm
Description: as §1
For evaluating control of fall armyworm (Spodoptera frugiperda) the test unit consisted of a small open container with a 4-5-day-old corn (maize) plant inside. This was pre-infested (using a core sampler) with 10-15 1-day-old larvae on a piece of insect diet. Test compounds were formulated and sprayed at 50 ppm as described for Test A and replicated three times. After spraying, the test units were maintained in a growth chamber and then the control efficacy was rated for each test unit as described for Test A.

[3] = system: western flower thrips (Frankliniella occidentalis); experiment: Test E: control of western flower thrips on Soleil bean plant, contact and/or systemic; conditions: held 6 days
Description: as §1
For evaluating control of the western flower thrips (Frankliniella occidentalis) through contact and/or systemic means, the test unit consisted of a small open container with a 5-7-day-old Soleil Bean plant inside. Test compounds were formulated and sprayed as described for Test A. All experimental compounds in these tests were sprayed at 250 or 50 ppm as noted, and the test was replicated three times. After spraying, the test units were allowed to dry for 1 h, 22-27 adult thrips were added to each unit and then a black, screened cap was placed on top. The test units were held for 6 days at 25° C. and 45-55% relative humidity. A mortality rating was assessed along with a plant damage rating for each test unit.

Measured: levels of control efficacy (20% or less feeding damage or 80% or more mortality)

CC(O)CNC(=O)c1ccc(C2=NOC(c3cc(C(F)(F)F)cc(C(F)(F)F)c3)(C(F)(F)F)C2)c2ccccc12 (stereo not drawn) [Compound 67]
very good to excellent: [1] | [2] | [3]; sprayed at 50 ppm | [3]; sprayed at 250 ppm

CCNC(=O)C(C)NC(=O)c1ccc(C2=NOC(c3cc(C(F)(F)F)cc(C(F)(F)F)c3)(C(F)(F)F)C2)c2ccccc12 (mixture of isomers) [Compound 96]
very good to excellent: [1] | [2] | [3]; sprayed at 250 ppm

CSCC(C)(C)NC(=O)c1ccc(C2=NOC(c3cc(Cl)cc(Cl)c3)(C(F)(F)F)C2)c2ccccc12 (stereo not drawn) [Compound 27]
very good to excellent: [1] | [2] | [3]; sprayed at 50 ppm | [3]; sprayed at 250 ppm

CCNC(=O)C(C)NC(=O)c1ccc(C2=NOC(c3cc(Br)cc(C(F)(F)F)c3)(C(F)(F)F)C2)c2ccccc12 (mixture of isomers) [Compound 142]
very good to excellent: [1] | [2] | [3]; sprayed at 50 ppm

CC(NC(=O)CNC(=O)c1ccc(C2=NOC(c3cc(Cl)cc(Cl)c3)(C(F)(F)F)C2)c2ccccc12)C(F)(F)F (mixture of isomers) [Compound 122]
very good to excellent: [1] | [2] | [3]; sprayed at 50 ppm | [3]; sprayed at 250 ppm

CC(C)CNC(=O)CNC(=O)c1ccc(C2=NOC(c3cc(C(F)(F)F)cc(C(F)(F)F)c3)(C(F)(F)F)C2)c2ccccc12 (stereo not drawn) [Compound 102]
very good to excellent: [1] | [2] | [3]; sprayed at 50 ppm

O=C(CNC(=O)c1ccc(C2=NOC(c3cccc(C(F)(F)F)c3)(C(F)(F)F)C2)c2ccccc12)NCC(F)(F)F (racemic) [Compound 35]
very good to excellent: [1] | [2] | [3]; sprayed at 250 ppm

CC(NC(=O)c1ccc(C2=NOC(c3cc(F)cc(C(F)(F)F)c3)(C(F)(F)F)C2)c2ccccc12)C(=O)NCC(F)(F)F (mixture of isomers) [Compound 139]
very good to excellent: [1] | [2] | [3]; sprayed at 50 ppm

CC(C)NC(=O)C(C)NC(=O)c1ccc(C2=NOC(c3cc(Cl)cc(Cl)c3)(C(F)(F)F)C2)c2ccccc12 (mixture of isomers) [Compound 33]
very good to excellent: [1] | [2] | [3]; sprayed at 50 ppm | [3]; sprayed at 250 ppm

CNC(=O)C(C)NC(=O)c1ccc(C2=NOC(c3cc(F)cc(C(F)(F)F)c3)(C(F)(F)F)C2)c2ccccc12 (mixture of isomers) [Compound 138]
very good to excellent: [1] | [2] | [3]; sprayed at 50 ppm

CS(=O)(=O)CCNC(=O)c1ccc(C2=NOC(c3cccc(C(F)(F)F)c3)(C(F)(F)F)C2)c2ccccc12 (racemic) [Compound 39]
very good to excellent: [1] | [2] | [3]; sprayed at 50 ppm | [3]; sprayed at 250 ppm

C[S+]([O-])CCNC(=O)c1ccc(C2=NOC(c3cc(F)cc(C(F)(F)F)c3)(C(F)(F)F)C2)c2ccccc12 (mixture of isomers) [Compound 133]
very good to excellent: [1] | [2] | [3]; sprayed at 50 ppm | [3]; sprayed at 250 ppm

CCN(C)C(=O)CNC(=O)c1ccc(C2=NOC(c3cc(Cl)cc(Cl)c3)(C(F)(F)F)C2)c2ccccc12 (stereo not drawn) [Compound 7]
very good to excellent: [1] | [2] | [3]; sprayed at 50 ppm | [3]; sprayed at 250 ppm

CCNC(=O)CNC(=O)c1ccc(C2=NOC(c3cc(Br)cc(C(F)(F)F)c3)(C(F)(F)F)C2)c2ccccc12 (racemic) [Compound 144]
very good to excellent: [1] | [2] | [3]; sprayed at 50 ppm

CCNC(=O)C(C)NC(=O)c1ccc(C2=NOC(c3cc(F)cc(C(F)(F)F)c3)(C(F)(F)F)C2)c2ccccc12 (mixture of isomers) [Compound 137]
very good to excellent: [1] | [2] | [3]; sprayed at 50 ppm

CCSCCCNC(=O)c1ccc(C2=NOC(c3cccc(C(F)(F)F)c3)(C(F)(F)F)C2)c2ccccc12 (racemic) [Compound 48]
very good to excellent: [1] | [2] | [3]; sprayed at 250 ppm

CCNC(=O)CNC(=O)c1ccc(C2=NOC(c3cc(C(F)(F)F)cc(C(F)(F)F)c3)(C(F)(F)F)C2)c2ccccc12 (stereo not drawn) [Compound 100]
very good to excellent: [1] | [2] | [3]; sprayed at 50 ppm

CSCCC(C)NC(=O)c1ccc(C2=NOC(c3cc(Cl)cc(Cl)c3)(C(F)(F)F)C2)c2ccccc12 (stereo not drawn) [Compound 26]
very good to excellent: [1] | [2] | [3]; sprayed at 50 ppm | [3]; sprayed at 250 ppm

CC(O)CNC(=O)c1ccc(C2=NOC(c3cccc(C(F)(F)F)c3)(C(F)(F)F)C2)c2ccccc12 (mixture of isomers) [Compound 36]
very good to excellent: [1] | [2] | [3]; sprayed at 250 ppm

O=C(CNC(=O)c1ccc(C2=NOC(c3cc(Cl)cc(OC(F)(F)F)c3)(C(F)(F)F)C2)c2ccccc12)NCC(F)(F)F (racemic) [Compound 136]
very good to excellent: [1] | [2] | [3]; sprayed at 50 ppm

CSCCNC(=O)c1ccc(C2=NOC(c3cc(Cl)cc(C(F)(F)F)c3)(C(F)(F)F)C2)c2ccccc12 (stereo not drawn) [Compound 65]
very good to excellent: [1] | [2] | [3]; sprayed at 50 ppm | [3]; sprayed at 250 ppm
